In US10947213B1 (Merck Patent GmbH, priority 2015, dated 2021) one finds IC50 data, which are given here for 32 compounds.

Structures can show the parent of a compound that is named as a salt. Some results are limits rather than exact numbers.

The experiment has as its target T1, TLR7/NFKb HEK cells (Homo sapiens, UniProt Q9NYK1).
T1 construct: expressed in transfected cells; host or cells: HEK cells (TLR7/NFKb reporter line)
T1 sequence (Q9NYK1 27-1049): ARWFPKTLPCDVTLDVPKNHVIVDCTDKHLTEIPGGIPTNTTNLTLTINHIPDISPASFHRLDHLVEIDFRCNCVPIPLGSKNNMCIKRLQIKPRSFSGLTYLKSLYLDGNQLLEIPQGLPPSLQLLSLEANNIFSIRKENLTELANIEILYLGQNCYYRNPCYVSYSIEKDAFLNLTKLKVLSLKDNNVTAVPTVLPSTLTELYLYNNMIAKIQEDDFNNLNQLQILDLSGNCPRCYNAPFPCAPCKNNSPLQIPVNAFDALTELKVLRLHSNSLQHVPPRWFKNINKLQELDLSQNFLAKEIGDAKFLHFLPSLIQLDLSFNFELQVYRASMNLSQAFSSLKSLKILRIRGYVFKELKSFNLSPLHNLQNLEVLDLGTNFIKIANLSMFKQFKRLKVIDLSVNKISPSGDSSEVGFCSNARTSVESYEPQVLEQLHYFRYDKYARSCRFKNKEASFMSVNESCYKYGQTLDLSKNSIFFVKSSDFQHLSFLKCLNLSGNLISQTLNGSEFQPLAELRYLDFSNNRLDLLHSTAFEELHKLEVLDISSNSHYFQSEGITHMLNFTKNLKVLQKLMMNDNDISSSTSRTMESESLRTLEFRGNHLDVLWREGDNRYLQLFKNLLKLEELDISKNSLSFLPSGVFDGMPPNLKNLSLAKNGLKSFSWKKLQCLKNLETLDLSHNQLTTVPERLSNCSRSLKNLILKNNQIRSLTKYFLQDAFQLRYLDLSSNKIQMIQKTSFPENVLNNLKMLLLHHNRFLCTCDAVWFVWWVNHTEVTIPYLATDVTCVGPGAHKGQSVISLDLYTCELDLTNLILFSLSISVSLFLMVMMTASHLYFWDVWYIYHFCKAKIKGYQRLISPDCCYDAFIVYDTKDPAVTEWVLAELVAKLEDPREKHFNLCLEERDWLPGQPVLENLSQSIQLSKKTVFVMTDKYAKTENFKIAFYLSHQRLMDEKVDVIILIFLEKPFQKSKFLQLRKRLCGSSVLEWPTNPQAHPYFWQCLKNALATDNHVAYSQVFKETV
Briefly: HEK Cell Assay (TLR7/NFKb reporter, Steady-Glo luciferase readout). In kind it is cell-based. As to conditions: 30 min compound preincubation, then R*48 agonist for 5 hours, read-out: Potency. An outline of the steps: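 Steady-Glo luminescence after 5 h stimulation with R*48 agonist, following 30 min compound preincubation. Assay run in HEK cells carrying a TLR7/NFKb luciferase reporter, plated at 5000 cells/well and grown 24 h at 37° C (10% CO2) before treatment.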
For the compound `C[C@H]1C[C@@H](NC(=O)C2(O)CC2)CN(c2ccc(C#N)c3nccnc23)C1` [Compound 230, N-[(3R,5S)-1-(8-cyanoquinoxalin-5-yl)-5-methylpiperidin-3-yl]-1-hydroxycyclopropane-1-carboxamide], the IC50 is less than 1000 nM. For `C[C@H]1C[C@@H](NC(C)(C)CO)CN(c2ccc(C(F)(F)F)c3ncccc23)C1` [Compound 242, 2-methyl-2-[[(3R,5S)-5-methyl-1-[8-(trifluoromethyl)quinolin-5-yl]piperidin-3-yl]amino]propan-1-ol] the value was 1000 to 10000 nM; for `N#Cc1ccc(N2C[C@H](NC(=O)CC3CCC(F)(F)CC3)C[C@H](C(F)(F)F)C2)c2cccnc12` [Compound 584, N-[(3R,5S)-1-(8-Cyano-quinolin-5-yl)-5-trifluoromethyl-piperidin-3-yl]-2-(4,4-difluoro-cyclohexyl)-acetamide], less than 1000 nM. As for `CN1CCC(NC(=O)C2CN(c3ccc(C#N)c4ncccc34)CC(F)(F)C2)CC1` (centres unmarked) [Compound 530, 1-(8-Cyano-quinolin-5-yl)-5,5-difluoro-piperidine-3-carboxylic acid (1-methyl-piperidin-4-yl)-amide], the IC50 is less than 1000 nM. With `Cn1ncc2c(N3CCC(C(=O)NCCN4CCCCC4)CC3)ncnc21` [Compound 3, 1-(1-methyl-1H-pyrazolo[3,4-d]pyrimidin-4-yl)-N-(2-(piperidin-1-yl)ethyl)piperidine-4-carboxamide], the IC50 was 1000 to 10000 nM. For `C[C@H]1C[C@@H](NC(=O)C2CCN(C)C2)CN(c2ccc(C(F)(F)F)c3ncccc23)C1` (stereo partly drawn) [Compound 248, 1-methyl-N-[(3R,5S)-5-methyl-1-[8-(trifluoromethyl)quinolin-5-yl]piperidin-3-yl]pyrrolidine-3-carboxamide], the IC50 was less than 1000 nM. Take `Cc1ncc(N2C[C@@H](C)C[C@@H](NC(=O)[C@H](O)C3CC3)C2)c2cccnc12` [Compound 558, (R)-2-Cyclopropyl-2-hydroxy-N-[(3R,5S)-5-methyl-1-(8-methyl-[1,7]naphthyridin-5-yl)-piperidin-3-yl]-acetamide]: the IC50 fell in the range of 1000 to 10000 nM. For `COc1ccc(N2C[C@@H](N)C[C@@H](C3CC3)C2)c2cccnc12` (relative stereo) [Compound 334, cis-5-cyclopropyl-1-(8-methoxyquinolin-5-yl)piperidin-3-amine], the IC50 was less than 1000 nM. For `CC(O)C(=O)N[C@@H]1C[C@H](C)CN(c2ccc(C(F)F)c3ncccc23)C1` (stereo partly drawn) [Compound 302, N-[(3R,5S)-1-[8-(difluoromethyl)quinolin-5-yl]-5-methylpiperidin-3-yl]-2-hydroxypropanamide] the value was 1000 to 10000 nM; for `C[C@H]1C[C@@H](NC(C)(C)CO)CN(c2ccc(C(F)(F)F)c3nccnc23)C1` [Compound 252, 2-methyl-2-[[(3R,5S)-5-methyl-1-[8-(trifluoromethyl)quinoxalin-5-yl]piperidin-3-yl]amino]propan-1-ol], 1000 to 10000 nM; for `C[C@@H]1C[C@@H](CN2CCC(N3CCOCC3)CC2)CN(c2ccc(C(F)(F)F)c3ncccc23)C1` (relative stereo) [Compound 536, trans-5-[3-Methyl-5-(4-morpholin-4-yl-piperidin-1-ylmethyl)-piperidin-1-yl]-8-trifluoromethyl-quinoline], 1000 to 10000 nM.

Consider `C[C@H]1C[C@@H](NC(=O)C(N)C(F)(F)F)CN(c2ccc(C(F)F)c3ncccc23)C1` (single isomer, unassigned) [Compound 208], for which the IC50 was less than 1000 nM. The result for `C[C@H]1C[C@@H](NC(=O)CC2CC2(F)F)CN(c2ccc(C#N)c3nccnc23)C1` (stereo partly drawn) [Compound 272, N-[(3R,5S)-1-(8-cyanoquinoxalin-5-yl)-5-methylpiperidin-3-yl]-2-(2,2-difluorocyclopropyl)acetamide] reads less than 1000 nM; that for `O=C(CN1CCOCC1)N[C@H]1C[C@@H](C2CC2)CN(c2ccc(C(F)(F)F)c3nccnc23)C1` (relative stereo) [Compound 335, cis-N-[5-cyclopropyl-1-[8-(trifluoromethyl)quinoxalin-5-yl]piperidin-3-yl]-2-(morpholin-4-yl)acetamide], more than 10000 nM. The result for `Cc1ncc(N2C[C@@H](C)C[C@@H](N)C2)c2cccnc12` [Compound 553, (3R,5S)-5-methyl-1-(8-methyl-1,7-naphthyridin-5-yl)piperidin-3-amine] reads less than 1000 nM; that for `CC(C)[C@H](O)C(=O)NC1CC(C2CC2)CN(c2ccc(C#N)c3nccnc23)C1` (single isomer, unassigned) [Compound 174], more than 10000 nM. With `C[C@H]1C[C@@H](NC(=O)CN2CC(O)C2)CN(c2ccc(C#N)c3nccnc23)C1` [Compound 270], the IC50 was less than 1000 nM. For `N#Cc1ccc(N2CC(NC(=O)CC3(N)CCCCC3)CC(C(F)(F)F)C2)c2cccnc12` (single isomer, unassigned) [Compound 498] the value was less than 1000 nM. On to `N#Cc1ccc(N2CC(NC(=O)C(N)C3CC3)CC(C(F)(F)F)C2)c2cccnc12` (single isomer, unassigned) [Compound 487], for which the IC50 is less than 1000 nM. Regarding `CNC(=O)CN[C@@H]1C[C@H](C)CN(c2ccc(C(F)(F)F)c3ncccc23)C1` [Compound 569], the IC50 is less than 1000 nM.

Consider `C[C@H]1C[C@@H](NC(=O)CN2CCC(F)(F)CC2)CN(c2ccc(C#N)c3nccnc23)C1` [Compound 348, N-[(3R,5S)-1-(8-cyanoquinoxalin-5-yl)-5-methylpiperidin-3-yl]-2-(4,4-difluoropiperidin-1-yl)acetamide], for which the IC50 was less than 1000 nM. As for `N#Cc1ccc(N2CC(N)CC(C3CC3)C2)c2nccnc12` (single isomer, unassigned) [Compound 70, 8-(3-amino-5-cyclopropylpiperidin-1-yl)quinoxaline-5-carbonitrile], the IC50 was less than 1000 nM. Consider `N#Cc1ccc(N2CCC(C(=O)NCCN3CCCCC3)CC2)c2cccnc12` [Compound 403, 1-(8-Cyano-quinolin-5-yl)-piperidine-4-carboxylic acid (2-piperidin-1-yl-ethyl)-amide], for which the IC50 was less than 1000 nM. For the compound `CCC(C)CC(=O)N[C@@H]1C[C@H](C)CN(c2ccc(C#N)c3nccnc23)C1` (single isomer, unassigned) [Compound 150], the IC50 was less than 1000 nM. In the case of `C[C@H]1C[C@@H](NC(=O)CC(C)(C)CN)CN(c2ccc(C#N)c3nccnc23)C1` [Compound 277, 4-amino-N-[(3R,5S)-1-(8-cyanoquinoxalin-5-yl)-5-methylpiperidin-3-yl]-3,3-dimethylbutanamide], the IC50 is less than 1000 nM. For `C[C@H]1C[C@@H](NC2CCN(C)C2=O)CN(c2ccc(C(F)(F)F)c3ncccc23)C1` (single isomer, unassigned) [Compound 237], the IC50 was less than 1000 nM. For `C[C@H]1C[C@@H](NC(=O)CC(C)(C)CN)CN(c2ccc(C(F)F)c3ncccc23)C1` [Compound 315, 4-amino-N-[(3R,5S)-1-[8-(difluoromethyl)quinolin-5-yl]-5-methylpiperidin-3-yl]-3,3-dimethylbutanamide], the IC50 was less than 1000 nM.

`C[C@H]1C[C@@H](NC(=O)CC2CCCN(C)C2)CN(c2ccc(C#N)c3nccnc23)C1` (stereo partly drawn) [Compound 266, N-[(3R,5S)-1-(8-cyanoquinoxalin-5-yl)-5-methylpiperidin-3-yl]-2-(1-methylpiperidin-3-yl)acetamide hydrochloride]: the IC50 is less than 1000 nM. `CC(C(=O)NC1CN(c2ccc(C#N)c3nccnc23)CC(F)(F)C1)N1CCC1` (single isomer, unassigned) [Compound 507]: the IC50 is less than 1000 nM.

`C[C@H]1C[C@@H](NC(=O)CN(C)C)CN(c2ccc(C(F)(F)F)c3ncccc23)C1` [Compound 199, 2-(dimethylamino)-N-[(3R,5S)-5-methyl-1-[8-(trifluoromethyl)quinolin-5-yl]piperidin-3-yl]acetamide]: the IC50 was less than 1000 nM. Consider `COCCN[C@@H]1C[C@H](C)CN(c2ccc(OC)c3nccnc23)C1` [Compound 67, (3R,5S)—N-(2-methoxyethyl)-1-(8-methoxyquinoxalin-5-yl)-5-methylpiperidin-3-amine], for which the IC50 is less than 1000 nM. With `CN1CC(CC(=O)NC2CC(C(F)(F)F)CN(c3ccc(C#N)c4ncccc34)C2)C1` (racemic) [Compound 490, cis-N-[(1-(8-Cyano-quinolin-5-yl)-5-trifluoromethyl-piperidin-3-yl]-2-(1-methyl-azetidin-3-yl)-acetamide], the IC50 is less than 1000 nM.
